Experimental findings from patent US9109041B2, “Analog compounds of analgesic peptides derived from the venom of crotalus durissus terrificus snakes, their uses, compositions, methods of preparation and purification” (priority 2004, dated 2015) are described below.

Assay [1] has as its system hyperalgesia induced by the Walker 256 tumor. The assay can be described thus: hyperalgesia induced by the Walker 256 tumor (cancer pain). Format: in vivo, rat. To be noted: saline + antagonist alone i.pl. (ICI 10, nor-BNI 50, CTOP 20 μg/paw); for pain threshold, FM / pain threshold, IM: 5th day; for pain threshold, FM: 2 hours after treatment; for pain threshold, IM: before treatment; for pain threshold, BM: before injection of the tumor. From the text:
(§1) The Walker 256 tumor cells were kindly provided by Prof. Dr. Rui Curi, of the Physiology and Biophysics Department of the Biomedical Science Institute of the University of São Paulo. The tumor-bearing animal was sacrificed and the tumoral tissue was removed, placed on a Petri dish containing 0.9% saline. Then, the tumor was cut in smaller parts, and transferred into a beaker containing saline. The material was triturated with a fine-cut, until the tumor is totally fragmented. Then, this material was filtered in gauze and the liquid collected in a beaker. All procedures were performed on ice. The material of the beaker was transferred to 50 ml plastic tubes and centrifuged at 4° C., for 10 minutes, at 1200 rpm. After centrifugation, the supernatant was rejected and the precipitate resuspended in saline 0.9%. For cell counts, the suspension of cells was diluted (1:100) in saline. An aliquot (200 μl) was removed and placed in a test tube containing 200 μl of 1% Trypan blue. The cell number was determined in optical microscope using Neubauer's chamber. The cellular viability was determined considering viable the light-refracting cells.
(§2) After determining the number of cells, 1 ml of the suspension, containing 1×10^7 cells, was injected by intraperitoneal route, on the right side of the rats to obtain liquid tumor (ascites).
(§3) Five days after injection, the rats with ascites were sacrificed and the ascetic fluid collected from the peritoneal cavity and placed in a test tube containing EDTA. The liquid was diluted 100 times with phosphate-buffered saline (PBS), pH 7.4. The cell count was done after dilution with Trypan blue, as described above. Tumor cell count was ascertained to 1×10^6 cells in 100 μl, by dilution with PBS. This number of cells was determined in preliminary tests for induction of cancer pain in rats. In this final cell number adjustment, the volume of antibiotic (Benzetacil®) added to the suspension (150,000 units of antibiotic/10 ml of suspension), was taken into consideration. The antibiotic was used in order to avoid microbial contamination. The cells were injected by intraplantar route into one of the rat hind paws. Control animals were injected with PBS into the contralateral paw, in the same experimental conditions.
(§4) Hyperalgesia, allodynia and spontaneous pain were determined before (BM-basal measurement) and 5 days after tumor cell injection, before (IM-initial measurement) and 2 hours after (FM-Final measurement) peptide administration.
(§5) The results were analyzed comparing the mean values of the basal and initial measurements, or of the initial and final measurements or, when determined, by comparing the mean values obtained in the different experimental groups (Tables 17, 18, 19).
(§6) For this purpose, the animals were treated with CTOP, a specific μ receptor antagonist (20 μg/paw), nor-BNI, a specific κ receptor antagonist (50 μg/paw) or with ICI 174,864, a specific δ receptor antagonist (10 μg/paw). The antagonists were injected by intraplantar route. The peptide was administered in the dose of 6 μg/kg, orally, immediately before the injection of the opioid antagonists. The results were analyzed comparing the mean values of the basal and initial measurements, or of the initial and final measurements or, when determined, by comparing the mean values obtained in the different experimental groups ( Table 20).

Assay [2] concerns allodynia induced by the Walker 256 tumor. In words: allodynia induced by the Walker 256 tumor (cancer pain). Format: in vivo, rat. To be noted: saline + antagonist alone i.pl. (ICI 10, nor-BNI 50, CTOP 20 μg/paw); for paw withdrawal threshold (allodynia), FM / paw withdrawal threshold (allodynia), IM: 5th day; for paw withdrawal threshold (allodynia), FM: 2 hours after treatment; for paw withdrawal threshold (allodynia), IM: before treatment; for paw withdrawal threshold (allodynia), BM: before injection of the tumor.
Text: as §1, §2, §3, §4, §5, §6

Turning to `Oc1ccc2c3c1O[C@H]1c4[nH]c5c(c4C[C@@]4(O)[C@@H](C2)N(CC2CC2)CC[C@]314)C[C@@]1(O)[C@H]2Cc3ccc(O)c4c3[C@@]1(CCN2CC1CC1)[C@H]5O4` [nor-BNI, nor-Binalthorphimine, reference compound], in assay [1], the “pain threshold, FM” value is on record as 32 ± 1.66 g; the “pain threshold, IM” value was 33 ± 3.33 g; the “pain threshold, BM” value came to 70 ± 2.88 g. Moreover, in assay [2], the “paw withdrawal threshold (allodynia), FM” value is on record as 4.41 ± 0.00 log 10 (mg × 10); the “paw withdrawal threshold (allodynia), IM” value was 4.41 ± 0.00 log 10 (mg × 10); the “paw withdrawal threshold (allodynia), BM” value is 4.97 ± 0.00 log 10 (mg × 10).
Turning to CTOP [reference compound], in assay [1], the “pain threshold, FM” value is recorded as 32 ± 1.66 g; the “pain threshold, IM” value is 35 ± 2.88 g; the “pain threshold, BM” value is 68 ± 1.66 g. In assay [2], the “paw withdrawal threshold (allodynia), FM” value is 4.41 ± 0.00 log 10 (mg × 10); the “paw withdrawal threshold (allodynia), IM” value is 4.41 ± 0.00 log 10 (mg × 10); the “paw withdrawal threshold (allodynia), BM” value is given as 4.97 ± 0.00 log 10 (mg × 10).
